{
  "source": "patent US20200188405A1",
  "about": "“COMPOSITION FOR TREATING OCULAR DISORDERS SUCH AS MACULAR DEGENERATION, RETINOPATHY AND GLAUCOMA” (RHEOSTASIS, LLC, priority 2017, published 2020)",
  "origin": "cited, not measured here",
  "tested_on": "β (beta) blocker",
  "details": "ocular applications",
  "note": "Counter-ions that a name gives are not always drawn.",
  "data": [
    {"smiles": "CC(C)(C)NC[C@H](O)COc1nsnc1N1CCOCC1", "note": "[Timolol Maleate]", "values": [
      {"measurement": "potency as β blocker relative to propranolol", "value": "5-10 times"}
    ]}
  ]
}
